Experimental data as given in patent US20240425511A1, “HETEROCYCLIC COMPOUNDS FOR USE IN THE TREATMENT OF CANCER” (ARTIOS PHARMA LIMITED, priority 2021, published 2024).

Target: Human Polθ polymerase domain (aa1820-2590) (Homo sapiens (Human), UniProt O75417)
Experiment: Polθ Polymerase Domain WT Ki Assay (PicoGreen assay)
Type: biochemical
Conditions: average of repeat determinations; 100 nM DNA substrate, 50 μM dNTPs, 0.156 nM Polθ
Procedure: A PicoGreen assay was used to measure the K, values of reversible compounds that inhibit the activity of Polθ in vitro.
Human Polθ polymerase domain (aa1820-2590) was expressed in E. Coli, purified, aliquoted and stored at −80° C. until required. Polθ substrate was generated from a 1.2:1 mix of DNA II Short to DNA II Long to give a final concentration of […] substrate in annealing buffer (20 mM Tris pH 7.5, 50 mM NaCl). The substrate was heated in 50 mL aliquots to 95° C. in a heating block for 5 min before the heating block switched off, the reaction left to cool to rt and stored at −20° C. until required.
Assay measurements were performed with 1× buffer comprising 25 mM Tris pH 7.5, 12.5 mM NaCl, […], 5% (v/v) glycerol, 0.01% v/v Triton x-100, 0.1 mg/ml BSA, 1 mM DTT. […]
To stop the reaction, 5 μL of a solution containing 25 mM Tris-HCl pH 7.5 and 20 mM EDTA was added at […] (t=0, 15, 30, 60, 90, 120, 150, 180 mins) using the Tempest's time delay function. […] After completing the assay, 5 μL of detection reagent (25 mM Tris-HCl pH 7.5 and 2.5% (v/v) PicoGreen) was dispensed into the wells using a Tempest liquid handler (Formulatrix) and plates subsequently read on the CLARIOstar Plus (BMG Labtech) using the default optical settings for fluorescein and the auto gain/focus settings. […]

Human Polθ polymerase domain (aa1820-2590), sequence (O75417 1820-2590): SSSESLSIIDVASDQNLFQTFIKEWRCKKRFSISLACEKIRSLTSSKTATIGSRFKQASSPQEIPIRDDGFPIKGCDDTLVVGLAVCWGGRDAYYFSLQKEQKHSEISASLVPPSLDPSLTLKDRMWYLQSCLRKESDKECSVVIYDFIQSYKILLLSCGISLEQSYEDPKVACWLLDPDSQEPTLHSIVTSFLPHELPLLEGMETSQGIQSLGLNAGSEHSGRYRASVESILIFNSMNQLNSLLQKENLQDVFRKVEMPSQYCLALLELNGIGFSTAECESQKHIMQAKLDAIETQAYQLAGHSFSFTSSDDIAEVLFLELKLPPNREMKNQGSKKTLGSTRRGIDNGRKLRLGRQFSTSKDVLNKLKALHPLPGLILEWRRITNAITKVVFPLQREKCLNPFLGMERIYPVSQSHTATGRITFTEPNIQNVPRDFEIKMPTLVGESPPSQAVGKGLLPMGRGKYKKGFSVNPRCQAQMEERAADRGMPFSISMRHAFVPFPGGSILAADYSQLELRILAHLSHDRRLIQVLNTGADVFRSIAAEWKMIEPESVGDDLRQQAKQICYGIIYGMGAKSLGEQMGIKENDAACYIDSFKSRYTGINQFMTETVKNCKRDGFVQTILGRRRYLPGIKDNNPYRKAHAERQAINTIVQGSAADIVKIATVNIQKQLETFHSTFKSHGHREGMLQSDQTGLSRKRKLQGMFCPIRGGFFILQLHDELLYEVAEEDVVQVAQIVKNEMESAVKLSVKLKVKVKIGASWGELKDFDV

Cc1cc(C(F)(F)F)cc(N2C(=O)C[C@@H]3CN(CCN4CCN(C)CC4)c4c(C)cccc4N(C)C(=O)[C@H]32)n1 [Example 1, (3aR,11aS)-6,10-Dimethyl-1-(6-methyl-4-(trifluoromethyl)pyridin-2-yl)-5-(2-(4-methylpiperazin-1-yl)ethyl)-1,3a,4,5,10,11a-hexahydro-2H-benzo[b]pyrrolo[2,3-f][1,4]diazocine-2,11(3H)-dione]
Ki: 1.27 nM
